Legend:
Test in all cases: Premier Screen kinase panel (MRC PPU)
Assay type in all cases: biochemical
[1] = target: ASK1 (Homo sapiens, UniProt Q99683); conditions: ASK1 (Entrez MAP3K5), read-out: Residual activity (%)
Protocol: (§1) room temperature with shaking for 30 minutes. The kinase concentration in the eluates was measured by qPCR.
(§2) using ADP-GloTM assay at the MRC PPU International Centre for Kinase Profiling, University of Dundee.
(§3) Conducted by MRC PPU International Centre
(§4) Conducted by MRC PPU International Centre for […]

[2] = target: BRSK2 (Homo sapiens, UniProt Q8IWQ3); conditions: BRSK2 (Entrez BRSK2), read-out: Residual activity (%)
Protocol: as §1, §2, §3, §4

[3] = target: CK2 (Homo sapiens, UniProt P68400); conditions: CK2 (Entrez CSNK2A1), read-out: Residual activity (%)
Protocol: as §1, §2, §3, §4

[4] = target: DDR2 (Homo sapiens, UniProt Q16832); conditions: DDR2 (Entrez DDR2), read-out: Residual activity (%)
Protocol: as §1, §2, §3, §4

[5] = target: HIPK1 (Homo sapiens, UniProt Q86Z02); conditions: HIPK1 (Entrez HIPK1), read-out: Residual activity (%)
Protocol: as §1, §2, §3, §4

[6] = target: MARK2 (Homo sapiens, UniProt Q7KZI7); conditions: MARK2 (Entrez MARK2), read-out: Residual activity (%)
Protocol: as §1, §2, §3, §4

[7] = target: MARK4 (Homo sapiens, UniProt Q96L34); conditions: MARK4 (Entrez MARK4), read-out: Residual activity (%)
Protocol: as §1, §2, §3, §4

[8] = target: MEKK1 (Homo sapiens, UniProt Q13233); conditions: MEKK1 (Entrez MAP3K1), read-out: Residual activity (%)
MEKK1, sequence (Q13233 whole entry): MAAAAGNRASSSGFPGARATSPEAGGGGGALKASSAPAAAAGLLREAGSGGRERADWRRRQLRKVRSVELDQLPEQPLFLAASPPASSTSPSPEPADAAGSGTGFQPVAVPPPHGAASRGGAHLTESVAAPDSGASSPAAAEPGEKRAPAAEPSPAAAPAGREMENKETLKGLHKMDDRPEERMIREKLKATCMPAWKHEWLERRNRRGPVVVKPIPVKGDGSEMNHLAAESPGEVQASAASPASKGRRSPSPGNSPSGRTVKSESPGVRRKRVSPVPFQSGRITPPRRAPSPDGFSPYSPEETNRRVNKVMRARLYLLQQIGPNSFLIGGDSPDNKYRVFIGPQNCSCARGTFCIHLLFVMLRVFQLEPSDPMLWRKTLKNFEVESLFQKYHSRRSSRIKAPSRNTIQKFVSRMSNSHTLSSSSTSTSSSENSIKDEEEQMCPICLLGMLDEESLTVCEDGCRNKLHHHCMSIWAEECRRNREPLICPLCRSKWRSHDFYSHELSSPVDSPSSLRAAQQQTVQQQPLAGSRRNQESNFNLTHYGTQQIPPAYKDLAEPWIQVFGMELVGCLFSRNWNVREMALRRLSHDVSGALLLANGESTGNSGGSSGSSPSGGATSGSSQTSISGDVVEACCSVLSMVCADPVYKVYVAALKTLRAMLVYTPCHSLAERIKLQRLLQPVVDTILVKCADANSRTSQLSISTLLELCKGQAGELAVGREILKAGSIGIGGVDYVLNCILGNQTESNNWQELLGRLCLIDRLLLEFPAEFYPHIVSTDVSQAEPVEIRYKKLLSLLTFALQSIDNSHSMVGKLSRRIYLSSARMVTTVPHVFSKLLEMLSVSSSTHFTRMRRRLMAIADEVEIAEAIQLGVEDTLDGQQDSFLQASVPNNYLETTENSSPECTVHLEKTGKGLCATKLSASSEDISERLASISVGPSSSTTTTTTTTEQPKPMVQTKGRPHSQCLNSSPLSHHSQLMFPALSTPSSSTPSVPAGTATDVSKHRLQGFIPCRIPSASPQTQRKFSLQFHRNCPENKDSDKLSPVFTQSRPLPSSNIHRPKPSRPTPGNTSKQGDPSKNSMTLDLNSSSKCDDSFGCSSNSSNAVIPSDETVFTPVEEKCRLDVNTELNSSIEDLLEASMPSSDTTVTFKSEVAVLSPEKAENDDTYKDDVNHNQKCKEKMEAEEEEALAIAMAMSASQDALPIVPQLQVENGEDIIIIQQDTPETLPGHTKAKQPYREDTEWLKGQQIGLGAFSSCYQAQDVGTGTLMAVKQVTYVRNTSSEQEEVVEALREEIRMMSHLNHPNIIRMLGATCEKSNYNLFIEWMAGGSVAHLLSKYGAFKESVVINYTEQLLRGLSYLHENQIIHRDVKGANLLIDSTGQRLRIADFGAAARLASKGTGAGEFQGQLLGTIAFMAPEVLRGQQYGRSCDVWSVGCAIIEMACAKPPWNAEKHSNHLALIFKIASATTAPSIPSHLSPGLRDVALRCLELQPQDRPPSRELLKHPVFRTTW
Protocol: as §1, §2, §3, §4

[9] = target: MINK1 (Homo sapiens, UniProt Q8N4C8); conditions: MINK1 (Entrez MINK1), read-out: Residual activity (%)
Protocol: as §1, §2, §3, §4

[10] = target: MLK1 (Homo sapiens, UniProt P80192); conditions: MLK1 (Entrez MAP3K9), read-out: Residual activity (%)
Protocol: as §1, §2, §3, §4

[11] = target: MLK3 (Homo sapiens, UniProt Q16584); conditions: MLK3 (Entrez MAP3K11), read-out: Residual activity (%)
Protocol: as §1, §2, §3, §4

[12] = target: OSR1 (Homo sapiens, UniProt O95747); conditions: OSR1 (Entrez OXSR1), read-out: Residual activity (%)
Protocol: as §1, §2, §3, §4

[13] = target: PAK6 (Homo sapiens, UniProt Q9NQU5); conditions: PAK6 (Entrez PAK6), read-out: Residual activity (%)
Protocol: as §1, §2, §3, §4

[14] = target: PDGFRA (Homo sapiens, UniProt P16234); conditions: PDGFRA (Entrez PDGFRA), read-out: Residual activity (%)
Protocol: as §1, §2, §3, §4

[15] = target: PIM3 (Homo sapiens, UniProt Q86V86); conditions: PIM3 (Entrez PIM3), read-out: Residual activity (%)
Protocol: as §1, §2, §3, §4

[16] = target: PINK (Tribolium castaneum, UniProt D6WMX4); conditions: PINK (Entrez PINK1), read-out: Residual activity (%)
PINK, sequence (D6WMX4 6-570): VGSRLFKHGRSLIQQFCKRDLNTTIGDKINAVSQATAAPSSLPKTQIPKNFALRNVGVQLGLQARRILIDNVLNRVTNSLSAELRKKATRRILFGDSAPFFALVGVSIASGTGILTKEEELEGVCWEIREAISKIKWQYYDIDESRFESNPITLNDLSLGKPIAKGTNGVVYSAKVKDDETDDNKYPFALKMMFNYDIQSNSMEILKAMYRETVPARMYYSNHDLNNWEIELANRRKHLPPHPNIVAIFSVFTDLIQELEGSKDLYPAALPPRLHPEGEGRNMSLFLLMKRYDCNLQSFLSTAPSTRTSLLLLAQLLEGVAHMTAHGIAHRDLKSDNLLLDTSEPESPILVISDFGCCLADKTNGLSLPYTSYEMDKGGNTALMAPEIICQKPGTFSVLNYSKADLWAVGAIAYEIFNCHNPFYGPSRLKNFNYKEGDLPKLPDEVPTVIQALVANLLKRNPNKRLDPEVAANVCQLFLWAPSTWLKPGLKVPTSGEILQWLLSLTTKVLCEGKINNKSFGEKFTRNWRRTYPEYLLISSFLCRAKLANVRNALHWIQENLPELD
Protocol: as §1, §2, §3, §4

[17] = target: PKA (Homo sapiens, UniProt P17612); conditions: PKA (Entrez PRKAC), read-out: Residual activity (%)
Protocol: as §1, §2, §3, §4

[18] = target: PKCa (Homo sapiens, UniProt P17252); conditions: PKCa (Entrez PRKCA), read-out: Residual activity (%)
Protocol: as §1, §2, §3, §4

[19] = target: PKCz (Homo sapiens, UniProt Q05513); conditions: PKCz (Entrez PRKCZ), read-out: Residual activity (%)
Protocol: as §1, §2, §3, §4

[20] = target: ROCK 2 (Rattus norvegicus, UniProt Q62868); conditions: ROCK 2 (Entrez ROCK2), read-out: Residual activity (%)
Protocol: as §1, §2, §3, §4

[21] = target: RSK2 (Homo sapiens, UniProt P51812); conditions: RSK2 (Entrez RPS6KA3), read-out: Residual activity (%)
Protocol: as §1, §2, §3, §4

[22] = target: STK33 (Homo sapiens, UniProt Q9BYT3); conditions: STK33 (Entrez STK33), read-out: Residual activity (%)
Protocol: as §1, §2, §3, §4

[23] = target: SmMLCK (Homo sapiens, UniProt Q15746); conditions: SmMLCK (Entrez MYLK), read-out: Residual activity (%)
SmMLCK, sequence (Q15746 whole entry): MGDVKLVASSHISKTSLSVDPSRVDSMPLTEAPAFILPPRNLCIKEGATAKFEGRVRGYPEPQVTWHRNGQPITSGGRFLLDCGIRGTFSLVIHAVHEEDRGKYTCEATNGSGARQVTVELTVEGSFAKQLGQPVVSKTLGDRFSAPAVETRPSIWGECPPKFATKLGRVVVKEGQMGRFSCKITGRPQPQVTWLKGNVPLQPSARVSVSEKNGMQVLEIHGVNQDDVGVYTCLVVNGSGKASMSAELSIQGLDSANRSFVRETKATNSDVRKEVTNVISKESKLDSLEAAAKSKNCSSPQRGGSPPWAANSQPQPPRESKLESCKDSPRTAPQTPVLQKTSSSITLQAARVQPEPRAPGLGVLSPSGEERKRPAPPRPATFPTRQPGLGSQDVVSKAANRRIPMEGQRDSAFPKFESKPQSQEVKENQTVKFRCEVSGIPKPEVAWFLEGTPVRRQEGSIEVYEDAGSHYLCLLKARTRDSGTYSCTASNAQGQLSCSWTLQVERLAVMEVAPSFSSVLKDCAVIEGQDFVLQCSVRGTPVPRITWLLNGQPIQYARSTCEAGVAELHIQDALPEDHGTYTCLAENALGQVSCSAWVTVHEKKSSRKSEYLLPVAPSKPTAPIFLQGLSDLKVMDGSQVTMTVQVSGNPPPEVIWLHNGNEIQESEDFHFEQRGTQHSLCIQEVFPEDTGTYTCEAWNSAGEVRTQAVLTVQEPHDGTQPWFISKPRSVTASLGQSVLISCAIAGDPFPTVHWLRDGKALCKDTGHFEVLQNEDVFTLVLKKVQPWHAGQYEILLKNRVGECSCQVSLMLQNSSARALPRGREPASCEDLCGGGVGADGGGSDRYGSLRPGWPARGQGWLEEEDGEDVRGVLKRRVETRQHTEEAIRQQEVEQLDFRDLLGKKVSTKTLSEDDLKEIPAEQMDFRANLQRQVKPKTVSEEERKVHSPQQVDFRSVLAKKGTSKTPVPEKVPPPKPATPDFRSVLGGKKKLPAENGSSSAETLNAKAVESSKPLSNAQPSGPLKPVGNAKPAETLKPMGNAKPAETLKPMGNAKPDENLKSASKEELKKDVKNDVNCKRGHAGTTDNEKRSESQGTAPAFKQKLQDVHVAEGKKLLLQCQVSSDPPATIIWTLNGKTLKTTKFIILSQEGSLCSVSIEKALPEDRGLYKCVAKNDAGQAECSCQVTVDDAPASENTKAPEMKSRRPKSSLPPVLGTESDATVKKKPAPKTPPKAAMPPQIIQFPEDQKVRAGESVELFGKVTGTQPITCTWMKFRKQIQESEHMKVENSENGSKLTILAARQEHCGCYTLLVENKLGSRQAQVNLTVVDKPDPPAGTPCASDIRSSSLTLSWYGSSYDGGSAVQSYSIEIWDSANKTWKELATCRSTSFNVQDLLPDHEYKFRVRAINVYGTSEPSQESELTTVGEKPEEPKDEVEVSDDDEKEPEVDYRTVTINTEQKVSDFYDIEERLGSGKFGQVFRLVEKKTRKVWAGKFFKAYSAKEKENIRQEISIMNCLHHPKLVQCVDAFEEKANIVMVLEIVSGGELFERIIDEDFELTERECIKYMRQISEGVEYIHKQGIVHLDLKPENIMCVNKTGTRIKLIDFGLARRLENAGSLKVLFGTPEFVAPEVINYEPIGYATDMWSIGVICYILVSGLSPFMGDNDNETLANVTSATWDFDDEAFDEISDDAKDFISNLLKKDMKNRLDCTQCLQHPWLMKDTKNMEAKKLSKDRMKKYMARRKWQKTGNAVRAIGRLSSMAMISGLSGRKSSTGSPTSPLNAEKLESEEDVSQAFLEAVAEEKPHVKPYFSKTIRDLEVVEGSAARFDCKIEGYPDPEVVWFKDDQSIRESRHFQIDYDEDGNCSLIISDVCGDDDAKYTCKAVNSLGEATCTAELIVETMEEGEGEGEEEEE
Protocol: as §1, §2, §3, §4

[24] = target: TAK1 (Homo sapiens, UniProt O43318); conditions: TAK1 (Entrez MAP3K7), read-out: Residual activity (%)
Protocol: as §1, §2, §3, §4

[25] = target: TBK1 (Homo sapiens, UniProt Q9UHD2); conditions: TBK1 (Entrez TBK1), read-out: Residual activity (%)
Protocol: as §1, §2, §3, §4

[26] = target: TGFBR1 (Homo sapiens, UniProt P36897); conditions: TGFBR1 (Entrez TGFBR1), read-out: Residual activity (%)
Protocol: as §1, §2, §3, §4

[27] = target: TSSK1 (Homo sapiens, UniProt Q9BXA7); conditions: TSSK1 (Entrez TSSK1B), read-out: Residual activity (%)
Protocol: as §1, §2, §3, §4

[28] = target: TTK (Homo sapiens, UniProt P33981); conditions: TTK (Entrez TTK), read-out: Residual activity (%)
Protocol: as §1, §2, §3, §4

[29] = target: ULK2 (Homo sapiens, UniProt Q8IYT8); conditions: ULK2 (Entrez ULK2), read-out: Residual activity (%)
Protocol: as §1, §2, §3, §4

[30] = target: YES1 (Homo sapiens, UniProt P07947); conditions: YES1 (Entrez YES1), read-out: Residual activity (%)
Protocol: as §1, §2, §3, §4

[31] = target: p38g MAPK (Homo sapiens, UniProt P53778); conditions: p38g MAPK (Entrez MAPK13), read-out: Residual activity (%)
Protocol: as §1, §2, §3, §4

SMILES: COc1ccc(Nc2ncnc3c2ccn3-c2ccc(C)c(C)c2)cc1Cl [compound 36]
- remaining activity at 1 µM [1]: 107%
- remaining activity at 1 µM [2]: 111%
- remaining activity at 1 µM [3]: 97%
- remaining activity at 1 µM [4]: 115%
- remaining activity at 1 µM [5]: 104%
- remaining activity at 1 µM [6]: 127%
- remaining activity at 1 µM [7]: 76%
- remaining activity at 1 µM [8]: 115%
- remaining activity at 1 µM [9]: 107%
- remaining activity at 1 µM [10]: 70%
- remaining activity at 1 µM [11]: 83%
- remaining activity at 1 µM [12]: 87%
- remaining activity at 1 µM [13]: 90%
- remaining activity at 1 µM [14]: 70%
- remaining activity at 1 µM [15]: 87%
- remaining activity at 1 µM [16]: 73%
- remaining activity at 1 µM [17]: 80%
- remaining activity at 1 µM [18]: 96%
- remaining activity at 1 µM [19]: 111%
- remaining activity at 1 µM [20]: 96%
- remaining activity at 1 µM [21]: 77%
- remaining activity at 1 µM [22]: 93%
- remaining activity at 1 µM [23]: 99%
- remaining activity at 1 µM [24]: 91%
- remaining activity at 1 µM [25]: 92%
- remaining activity at 1 µM [26]: 87%
- remaining activity at 1 µM [27]: 98%
- remaining activity at 1 µM [28]: 87%
- remaining activity at 1 µM [29]: 92%
- remaining activity at 1 µM [30]: 98%
- remaining activity at 1 µM [31]: 101%

— article PMC10211317, “Identification of ARUK2002821 as an isoform-selective PI5P4Kα inhibitor” (RSC Medicinal Chemistry, 2023)
